Laboratory results published in patent publication US10556905B2, “Processes for preparing a diazabicyclooctane compound” (priority 2012, dated 2020).
Where two headings read alike, the source gives them in different places.

Experiments:
KPC-2 = molecular target: T1, KPC-2 (Klebsiella pneumoniae, UniProt Q9F663); assay: β-Lactamase inhibitory activity (nitrocefin hydrolysis), KPC-2; format: biochemical; conditions: KPC-2 0.5 nM, 100 μM nitrocefin, pre-incubation 30° C. 10 minutes
T1 construct: AmpC, TEM-1, KPC-2 or OXA-2 domain excluding signal peptide was amplified with PCR; made in house; host or cells: Escherichia coli BL21 (DE3), pET-28b(+)

AmpC = molecular target: T2, AmpC (Pseudomonas aeruginosa, UniProt P24735); assay: biochemical
T2 construct: AmpC, TEM-1, KPC-2 or OXA-2 domain excluding signal peptide was amplified with PCR; made in house; host or cells: Escherichia coli BL21 (DE3), pET-28b(+)

TEM-1 = molecular target: T3, TEM-1 (Escherichia coli, UniProt P62593); assay: β-Lactamase inhibitory activity (nitrocefin hydrolysis), TEM-1; format: biochemical; conditions: TEM-1 0.1 nM, 100 μM nitrocefin, pre-incubation 30° C. 10 minutes
T3 construct: AmpC, TEM-1, KPC-2 or OXA-2 domain excluding signal peptide was amplified with PCR; made in house; host or cells: Escherichia coli BL21 (DE3), pET-28b(+)
Procedure: Using Pseudomonas aeruginosa ATCCBAA-47 genome, plasmid pBR322, Klebsiella pneumoniae ATCCBAA-1705, and P. aeruginosa MSC17696 as a template, each DNA for encoding β-lactamase, AmpC, TEM-1, KPC-2 or OXA-2 domain excluding signal peptide was amplified with PCR. Each of the PCR product was incorporated into pET-28b(+)vector (Merck), introduced into Escherichia coli BL21 (DE3) (Merck), and, under induction of 1 mM isopropyl-β-D-(−)-thiogalactopyranoside (Nacalai Tesque), cultured overnight at 20° C. to express AmpC, TEM-1, KPC-2, and OXA-2. After the bacterial cell was collected, AmpC was purified from the cell extract obtained by ultrasonic treatment, using CM Sepharose Fast Flow (GE Healthcare) and HiTrap Heparin HP (GE Healthcare) at 4° C. TEM-1 was purified with HiTrap SPHP (GE Healthcare), HiTrap Q (GE Healthcare) and Mono Q (GE Healthcare), and KPC-2 was purified with HiTrap SPHP. OXA-2 was purified with HiTrap SPHP and HiTrap Heparin HP.
For the measurement of β-lactamase inhibitory activity, 100 μM (final concentration) nitrocefin (Oxoid) was used as a substrate, and 2.5% DMSO, 10 μg/mL bovine serum derived albumin (Sigma-Aldrich) and 50 mM phosphate buffer at pH 7.0 were used as a reaction solution. […] Nitrocefin was added to each well to be mixed therein, followed by incubation at 30° C. for 20 minutes, and Multiscan Ascent (Thermo Fisher Scientific) was used to measure 492 nm wavelength, thereby measuring nitrocefin hydrolytic activity of β-Lactamase, to determine enzyme inhibitory activity. […] As the inhibitory activity strength, less than 0.1 μM, less than 1 μM, less than 3 μM, less than 10 μM, and 10 μM or more were shown with A, B, C, D, and E respectively.

OXA-2 = molecular target: T4, OXA-2 (Escherichia coli, UniProt P0A1V9); assay: biochemical; parameters: species or system P. aeruginosa
T4 construct: AmpC, TEM-1, KPC-2 or OXA-2 domain excluding signal peptide was amplified with PCR; made in house; host or cells: Escherichia coli BL21 (DE3), pET-28b(+)

[1] = OXA-2 2 nM, 100 μM nitrocefin, pre-incubation 30° C. 10 minutes, read-out: β-Lactamase inhibitory activity OXA-2 (IC50)

T1 sequence (Q9F663 25-293, looked up): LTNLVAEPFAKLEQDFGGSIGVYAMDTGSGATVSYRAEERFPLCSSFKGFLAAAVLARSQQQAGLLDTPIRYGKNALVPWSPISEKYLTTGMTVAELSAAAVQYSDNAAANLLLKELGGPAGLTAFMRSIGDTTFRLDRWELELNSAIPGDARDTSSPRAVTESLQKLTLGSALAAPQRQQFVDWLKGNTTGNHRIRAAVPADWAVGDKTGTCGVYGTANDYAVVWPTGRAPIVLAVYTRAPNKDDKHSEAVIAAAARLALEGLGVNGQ
T3 sequence (P62593 24-286 limits assumed): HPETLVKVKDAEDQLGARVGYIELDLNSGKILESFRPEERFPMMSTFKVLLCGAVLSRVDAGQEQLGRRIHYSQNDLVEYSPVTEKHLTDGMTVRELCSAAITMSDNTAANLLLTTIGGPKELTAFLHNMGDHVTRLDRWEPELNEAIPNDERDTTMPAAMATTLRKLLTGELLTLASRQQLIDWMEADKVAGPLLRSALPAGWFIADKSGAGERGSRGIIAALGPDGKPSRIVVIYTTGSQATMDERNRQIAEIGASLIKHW
T2 sequence (P24735 27-397): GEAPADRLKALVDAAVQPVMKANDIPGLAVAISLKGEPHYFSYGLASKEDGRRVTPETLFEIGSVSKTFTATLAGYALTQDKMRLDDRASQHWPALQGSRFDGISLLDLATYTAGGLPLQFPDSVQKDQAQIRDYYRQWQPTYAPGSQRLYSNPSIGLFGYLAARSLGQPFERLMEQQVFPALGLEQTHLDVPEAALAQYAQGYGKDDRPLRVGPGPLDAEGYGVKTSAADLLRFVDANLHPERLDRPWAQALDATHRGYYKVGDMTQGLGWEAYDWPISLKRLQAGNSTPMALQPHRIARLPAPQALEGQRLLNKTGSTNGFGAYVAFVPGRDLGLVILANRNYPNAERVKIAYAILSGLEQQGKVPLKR
T4 sequence (P0A1V9 22-275): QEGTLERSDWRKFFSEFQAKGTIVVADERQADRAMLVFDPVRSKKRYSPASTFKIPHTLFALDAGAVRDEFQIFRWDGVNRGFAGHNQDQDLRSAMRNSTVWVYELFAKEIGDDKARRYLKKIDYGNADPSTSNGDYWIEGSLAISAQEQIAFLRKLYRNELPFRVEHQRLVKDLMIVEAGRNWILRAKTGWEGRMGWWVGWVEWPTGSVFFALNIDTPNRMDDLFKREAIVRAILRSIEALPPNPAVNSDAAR

Row | SMILES | IC50 (KPC-2) [nM] | IC50 (AmpC) [nM] | IC50 (TEM-1) [nM] | IC50 (OXA-2; [1]) [nM] | IC50 (OXA-2) [nM]
1 | O=C(NOCCN1CCCNCC1)[C@@H]1CC[C@@H]2CN1C(=O)N2OS(=O)(=O)O [Example 74, (2S,5R)-7-Oxo-N-[2-(1,4-diazepan-1-yl)ethoxy]-6-(sulfooxy)-1,6-diazabicyclo[3.2.1]octane-2-carboxamide] | 100 to 1000 | < 100 | < 100 | 100 to 1000 | –
2 | CC(C)(C)OC(=O)NCCONC(=O)[C@@H]1CC[C@@H]2CN1C(=O)N2OS(=O)(=O)O [Example 60, Sodium tert-butyl {2-[({[(2S,5R)-7-oxo-6-(sulfooxy)-1,6-diazabicyclo[3.2.1]oct-2-yl]carbonyl}amino)oxy]ethyl}carbamate] | 100 to 1000 | 100 to 1000 | < 100 | – | 100 to 1000
3 | O=C(NOC[C@H]1CCCN1)[C@@H]1CC[C@@H]2CN1C(=O)N2OS(=O)(=O)O [Example 77, (2S,5R)-7-Oxo-N-[(2R)-pyrrolidin-2-ylmethoxy]-6-(sulfooxy)-1,6-diazabicyclo[3.2.1]octane-2-carboxamide] | 100 to 1000 | 100 to 1000 | < 100 | 100 to 1000 | –
4 | CCC(=O)NNC(=O)[C@@H]1CC[C@@H]2CN1C(=O)N2OS(=O)(=O)O [Example 22, Sodium (2S,5R)-7-oxo-N′-propanoyl-6-(sulfooxy)-1,6-diazabicyclo[3.2.1]octane-2-carbohydrazide] | 100 to 1000 | 100 to 1000 | < 100 | – | 3000 to 10000
5 | CN(C)NC(=O)[C@@H]1CC[C@@H]2CN1C(=O)N2OS(=O)(=O)O (racemic) [Example 20, Sodium (2SR,5RS)—N′,N′-dimethyl-7-oxo-6-(sulfooxy)-1,6-diazabicyclo[3.2.1]octane-2-carbohydrazide] | 1000 to 3000 | 100 to 1000 | 100 to 1000 | – | 3000 to 10000
6 | O=C(NOCC(=O)N1CCNCC1)[C@@H]1CC[C@@H]2CN1C(=O)N2OS(=O)(=O)O [Example 90, (2S,5R)-7-Oxo-N-[2-oxo-2-(piperazin-1-yl)ethoxy]-6-(sulfooxy)-1,6-diazabicyclo[3.2.1]octane-2-carboxamide] | 100 to 1000 | < 100 | < 100 | 100 to 1000 | –
7 | O=C(NNC(=O)[C@@H]1CC[C@@H]2CN1C(=O)N2OS(=O)(=O)O)c1ccncc1 [Example 46, Sodium (2S,5R)-7-oxo-N′-(pyridine-4-ylcarbonyl)-6-(sulfooxy)-1,6-diazabicyclo[3.2.1]octane-2-carbohydrazide] | 100 to 1000 | < 100 | < 100 | – | 1000 to 3000
8 | O=C(NOCCn1ccnc1S(=O)(=O)O)[C@@H]1CC[C@@H]2CN1C(=O)N2OS(=O)(=O)O [Example 88, Disodium 1-{2-[({[(2S,5R)-7-oxo-6-(sulfonateoxy)-1,6-diazabicyclo[3.2.1]oct-2-yl]carbonyl}amino)oxy]ethyl}-1H-Imidazol-2-sulfonate] | 100 to 1000 | 100 to 1000 | < 100 | 100 to 1000 | –
9 | C[C@@H](N)CONC(=O)[C@@H]1CC[C@@H]2CN1C(=O)N2OS(=O)(=O)O [Example 67, (2S,5R)—N-{[(2R)-2-Aminopropyl]oxy}-7-oxo-6-(sulfooxy)-1,6-diazabicyclo[3.2.1]octane-2-carboxamide] | 1000 to 3000 | 100 to 1000 | < 100 | 1000 to 3000 | –
10 | O=C1CC[C@H](C(=O)NNC(=O)[C@@H]2CC[C@@H]3CN2C(=O)N3OS(=O)(=O)O)N1 [Example 42, Sodium (2S,5R)-7-oxo-N′-{[(2R)-5-oxopyrrolidin-2-yl]carbonyl}-6-(sulfooxy)-1,6-diazabicyclo[3.2.1]octane-2-carbohydrazide] | 100 to 1000 | 100 to 1000 | 100 to 1000 | – | 1000 to 3000
11 | C[C@H](N)CONC(=O)[C@@H]1CC[C@@H]2CN1C(=O)N2OS(=O)(=O)O [Example 66, (2S,5R)—N-{[(2S)-2-Aminopropyl]oxy}-7-oxo-6-(sulfooxy)-1,6-diazabicyclo[3.2.1]octane-2-carboxamide] | 1000 to 3000 | 100 to 1000 | < 100 | 1000 to 3000 | –
12 | O=C(NNC(=O)[C@@H]1CC[C@@H]2CN1C(=O)N2OS(=O)(=O)O)c1cccnc1 [Example 45, Sodium (2S,5R)-7-oxo-N′-(pyridine-3-ylcarbonyl)-6-(sulfooxy)-1,6-diazabicyclo[3.2.1]octane-2-carbohydrazide] | 100 to 1000 | < 100 | < 100 | – | 1000 to 3000
13 | O=C(NNC(=O)[C@@H]1CC[C@@H]2CN1C(=O)N2OS(=O)(=O)O)c1cocn1 [Example 44, Sodium (2S,5R)—N′-(1,3-oxazol-4-ylcarbonyl)-7-oxo-6-(sulfooxy)-1,6-diazabicyclo[3.2.1]octane-2-carbohydrazide] | < 100 | < 100 | < 100 | – | 1000 to 3000
14 | O=C(NNC(=O)[C@@H]1CC[C@@H]2CN1C(=O)N2OS(=O)(=O)O)[C@H]1CCCN1 [Example 39, (2S,5R)-7-Oxo-N′-[(2R)-pyrrolidin-2-ylcarbonyl]-6-(sulfooxy)-1,6-diazabicyclo[3.2.1]octane-2-carbohydrazide] | 1000 to 3000 | < 100 | < 100 | 1000 to 3000 | –
15 | COC(=O)NNC(=O)[C@@H]1CC[C@@H]2CN1C(=O)N2OS(=O)(=O)O [Example 51, Sodium methyl 2-{[(2S,5R)-7-oxo-6-(sulfooxy)-1,6-diazabicyclo[3.2.1]oct-2-yl]carbonyl}hydrazinecarboxylate] | 100 to 1000 | 100 to 1000 | < 100 | – | 1000 to 3000
16 | O=C(NO[C@@H]1CCNC1)[C@@H]1CC[C@@H]2CN1C(=O)N2OS(=O)(=O)O [Example 80, (2S,5R)-7-Oxo-N-[(3R)-pyrrolidin-3-yloxy]-6-(sulfooxy)-1,6-diazabicyclo[3.2.1]octane-2-carboxamide] | 1000 to 3000 | 100 to 1000 | < 100 | 100 to 1000 | –
17 | CCOC(=O)NNC(=O)[C@@H]1CC[C@@H]2CN1C(=O)N2OS(=O)(=O)O [Example 52, Sodium ethyl 2-{[(2S,5R)-7-oxo-6-(sulfooxy)-1,6-diazabicyclo[3.2.1]oct-2-yl]carbonyl}hydrazinecarboxylate] | 100 to 1000 | 100 to 1000 | < 100 | – | 1000 to 3000
18 | CC(C)NCCONC(=O)[C@@H]1CC[C@@H]2CN1C(=O)N2OS(=O)(=O)O [Example 64, (2S,5R)-7-Oxo-N-[2-(propan-2-ylamino)ethoxy]-6-(sulfooxy)-1,6-diazabicyclo[3.2.1]octane-2-carboxamide] | 100 to 1000 | 100 to 1000 | < 100 | 1000 to 3000 | –
19 | O=C(NOCCN1CCOCC1)[C@@H]1CC[C@@H]2CN1C(=O)N2OS(=O)(=O)O [Example 72, Sodium (2S,5R)—N-[2-(morpholin-4-yl)ethoxy]-7-oxo-6-(sulfooxy)-1,6-diazabicyclo[3.2.1]octane-2-carboxamide] | 100 to 1000 | < 100 | < 100 | – | 100 to 1000
20 | COCCONC(=O)[C@@H]1CC[C@@H]2CN1C(=O)N2OS(=O)(=O)O [Example 96, Sodium (2S,5R)—N-(2-methoxyethoxy)-7-oxo-6-(sulfooxy)-1,6-diazabicyclo[3.2.1]octane-2-carboxamide] | 100 to 1000 | < 100 | < 100 | – | 1000 to 3000
21 | O=C(NOC[C@@H]1CCCN1)[C@@H]1CC[C@@H]2CN1C(=O)N2OS(=O)(=O)O [Example 76, (2S,5R)-7-Oxo-N-[(2S)-pyrrolidin-2-ylmethoxy]-6-(sulfooxy)-1,6-diazabicyclo[3.2.1]octane-2-carboxamide] | 100 to 1000 | 100 to 1000 | < 100 | 100 to 1000 | –
22 | CC(C)C(=O)NNC(=O)[C@@H]1CC[C@@H]2CN1C(=O)N2OS(=O)(=O)O [Example 23, Sodium (2S,5R)—N′-(2-methylpropanoyl)-7-oxo-6-(sulfooxy)-1,6-diazabicyclo[3.2.1]octane-2-carbohydrazide] | 100 to 1000 | 100 to 1000 | < 100 | – | 3000 to 10000
23 | O=C(NOC[C@@H]1CCCNC1)[C@@H]1CC[C@@H]2CN1C(=O)N2OS(=O)(=O)O [Example 83, (2S,5R)-7-Oxo-N-[(3R)-piperidine-3-ylmethoxy]-6-(sulfooxy)-1,6-diazabicyclo[3.2.1]octane-2-carboxamide] | 100 to 1000 | < 100 | < 100 | 100 to 1000 | –
